# From patent US20230295201A1 (Gilead Sciences, Inc., priority 2020, published 2023)
# Read-outs that look alike come from different tables or passages of the source.
# Assays:
# Assay type in all cases: cell-based
# [1] = tested on: HRV16; test: HRV16 HELA EC50 (cytopathic effect in H1-HeLa cells)
# Summary of the method: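 H1-HeLa cells seeded one day before, given 3-fold serial compound dilutions in triplicate just prior to infection with pre-titrated virus. Incubated 96 h at 33 °C/5% CO2; protection from cytopathic effect read as viability by CellTiter-Glo luminescence, normalised to infected untreated (0%) and uninfected (100%) controls.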
# [2] = tested on: RSV A2; test: RSV NHBE EC50 (RSV A2 antiviral assay in normal human bronchial epithelial cells); details: read-out: RSV NHBE EC50
# [3] = tested on: DENV2 replicon; test: DENV-2 Huh-7 Rep EC50 (replicon luminescence); details: read-out: DENV-2 Huh-7 Rep EC50
# Summary of the method: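 Huh-7 cells carrying a DENV2 replicon, 5,000 cells/well, were incubated with dosed compounds for 48 h at 37° C. EnduRen live-cell substrate was added 1.5 h before luminescence reading. EC50 came from dose-response against DMSO-only wells.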
# [4] = tested on: RSV strain A2; test: RSV HEp-2 EC50 (infectious cytopathic cell protection assay); details: read-out: RSV HEp-2 EC50
# Summary of the method: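 HEp-2 cells mixed with titered RSV A2 at 50,000 cells/ml were added to plates holding 3-fold serial compound dilutions in DMSO, then incubated 4 days at 37° C. Cytoprotection was read as cell viability by CellTiter-Glo luminescence and converted to percent inhibition against 0% and 100% inhibition controls.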
# [5] = 96 h, H1-HeLa cells, 33° C., read-out: HRV16 HELA EC50
# [6] = human respiratory syncytial virus, NHBE, 96 h, NHBE cells, RSV A2, 4 days
# [7] = Dengue virus, DENV2, Huh-7, 48 h, Huh-7 replicon cells, 48 hours
# [8] = human respiratory syncytial virus, HEp-2, 96 h, HEp-2 cells, RSV A2, 4 days
# [9] = H1-HeLa cells, 96 h, 33° C.; read-out: HRV16 HELA EC50
# [10] = Dengue virus, DENV2, Huh-7, 48 h
Structure (SMILES),"EC50 [1, 5] [µM]","EC50 [2, 6] [nM]","EC50 [3, 7] [µM]","EC50 [4, 8] [nM]",also measured
"CC(C)OC(=O)C[C@H](C)NP(=O)(OC[C@@]1(C#N)O[C@@H](c2ccc3c(N)ncnn23)[C@H](O)[C@@H]1O)Oc1ccccc1 (stereo partly drawn) [Example 99, (3S)-isopropyl 3-(((((2R,3S,4R,5S)-5-(4-aminopyrrolo[2,1-f][1,2,4]triazin-7-yl)-2-cyano-3,4-dihydroxytetrahydrofuran-2-yl)methoxy)(phenoxy)phosphoryl)amino)butanoate]",> 50,> 5000,> 50,> 50000,
"C[C@H](NP(=O)(OC[C@@]1(C#N)O[C@@H](c2ccc3c(N)ncnn23)[C@H](O)[C@@H]1O)Oc1ccccc1)C(=O)OC1CCCCCC1 (single isomer, unassigned) [Example 136]",0.577,,51.1,,"EC50 ([2]; NHBE cells, RSV A2, 4 days): 95 nM; EC50 ([4]; HEp-2 cells, RSV A2, 4 days): 2770 nM"
"CC(C)(CO)C(=O)OCCNP(=O)(OC[C@@]1(C#N)O[C@@H](c2ccc3c(N)ncnn23)[C@H](O)[C@@H]1O)Oc1ccccc1 (stereo partly drawn) [Example 126, 2-(((((2R,3S,4R,5S)-5-(4-aminopyrrolo[2,1-f][1,2,4]triazin-7-yl)-2-cyano-3,4-dihydroxytetrahydrofuran-2-yl)methoxy)(phenoxy)phosphoryl)amino)ethyl 3-hydroxy-2,2-dimethylpropanoate]",27.9,1790,> 50,6560,
"C[C@H](NP(=O)(OC[C@@]1(C#N)O[C@@H](c2ccc3c(N)ncnn23)[C@H](O)[C@@H]1O)Oc1ccccc1)C(=O)OC1CCC1 (single isomer, unassigned) [Example 50]",0.464,498,6.92,44,
"CCC(CC)COC(=O)[C@H](C)N[P@@](=O)(OC[C@@]1(C#N)O[C@@H](c2ccc3c(N)ncnn23)[C@H](O)[C@@H]1O)Oc1ccccc1 (single isomer, unassigned) [Example 207]",0.183,91,4.84,124,
"CC[C@H](NP(=O)(OC[C@@]1(C#N)O[C@@H](c2ccc3c(N)ncnn23)[C@H](O)[C@@H]1O)Oc1ccccc1)C(=O)OC(C)C (stereo partly drawn) [Example 87, (2S)-isopropyl 2-(((((2R,3S,4R,5S)-5-(4-aminopyrrolo[2,1-f][1,2,4]triazin-7-yl)-2-cyano-3,4-dihydroxytetrahydrofuran-2-yl)methoxy)(phenoxy)phosphoryl)amino)butanoate]",6.71,1700,> 100,1340,
"N#C[C@]1(COP(=O)(N[C@H](C(=O)OCC2CC2)C2CCCC2)Oc2ccccc2)O[C@@H](c2ccc3c(N)ncnn23)[C@H](O)[C@@H]1O (stereo partly drawn) [Example 123, (2S)-cyclopropylmethyl 2-(((((2R,3S,4R,5S)-5-(4-aminopyrrolo[2,1-f][1,2,4]triazin-7-yl)-2-cyano-3,4-dihydroxytetrahydrofuran-2-yl)methoxy)(phenoxy)phosphoryl)amino)-2-cyclopentylacetate]",> 100,> 5000,48.5,> 100000,
C[C@H](NP(=O)(OC[C@@]1(C#N)O[C@@H](c2ccc3c(N)ncnn23)[C@H](O)[C@@H]1O)Oc1ccccc1)C(=O)OC1CCC1 (stereo partly drawn) [Example 51],,,,,"EC50 [1, 9]: 0.357 µM; EC50 ([2]; NHBE cells, RSV A2, 4 days): > 1240 nM; EC50 ([3]; Huh-7 replicon cells, 48 hours): 9.21 µM; EC50 ([4]; HEp-2 cells, RSV A2, 4 days): 90 nM"
"CC[C@H](NP(=O)(OC[C@@]1(C#N)O[C@@H](c2ccc3c(N)ncnn23)[C@H](O)[C@@H]1O)Oc1ccccc1)C(=O)OC1CCCC1 (stereo partly drawn) [Example 109, (2S)-cyclopentyl 2-(((((2R,3S,4R,5S)-5-(4-aminopyrrolo[2,1-f][1,2,4]triazin-7-yl)-2-cyano-3,4-dihydroxytetrahydrofuran-2-yl)methoxy)(phenoxy)phosphoryl)amino)butanoate]",2.49,452,> 50,1070,
CCCCCOC(=O)C[C@H](N[P@@](=O)(OC[C@@]1(C#N)O[C@@H](c2ccc3c(N)ncnn23)[C@H](O)[C@@H]1O)Oc1ccccc1)C(=O)OCCCCC [Example 216],,,,,"EC50 [1, 9]: 32.8 µM; EC50 ([2]; NHBE cells, RSV A2, 4 days): > 4390 nM; EC50 ([3]; Huh-7 replicon cells, 48 hours): 33 µM; EC50 ([4]; HEp-2 cells, RSV A2, 4 days): 4230 nM"
"CCC(CC)COC(=O)[C@H](CCCCN)NP(=O)(OC[C@@]1(C#N)O[C@@H](c2ccc3c(N)ncnn23)[C@H](O)[C@@H]1O)Oc1ccccc1 (mixture of isomers) [Example 91, (2S)-2-ethylbutyl 6-amino-2-(((((2R,3S,4R,5S)-5-(4-aminopyrrolo[2,1-f][1,2,4]triazin-7-yl)-2-cyano-3,4-dihydroxytetrahydrofuran-2-yl)methoxy)(phenoxy)phosphoryl)amino)hexanoate]",> 50,> 5000,> 50,12100,
CC[C@H](N[P@](=O)(OC[C@@]1(C#N)O[C@@H](c2ccc3c(N)ncnn23)[C@H](O)[C@@H]1O)Oc1ccccc1)C(=O)OCC(C)(C)C [Example 159],,,,,"EC50 [1, 9]: 1.28 µM; EC50 ([2]; NHBE cells, RSV A2, 4 days): 489 nM; EC50 ([3]; Huh-7 replicon cells, 48 hours): > 50 µM; EC50 ([4]; HEp-2 cells, RSV A2, 4 days): 220 nM"
"CC(C)[C@H](N)C(=O)Nc1ncnn2c([C@@H]3O[C@](C#N)(CO[P@@](=O)(N[C@@H](C)C(=O)OC4CCCCC4)Oc4ccccc4)[C@@H](O)[C@H]3O)ccc12 [Example 237, cyclohexyl ((S)-(((2R,3S,4R,5S)-5-(4-((S)-2-amino-3-methylbutanamido)pyrrolo[2,1-f][1,2,4]triazin-7-yl)-2-cyano-3,4-dihydroxytetrahydrofuran-2-yl)methoxy)(phenoxy)phosphoryl)-L-alaninate]",> 50,> 10800,> 50,> 38400,
"CC(C)OC(=O)[C@@H](C)NP(=O)(OC[C@@]1(C#N)O[C@@H](c2ccc3c(N)ncnn23)[C@H](O)[C@@H]1O)Oc1ccccc1 (stereo partly drawn) [Example 86, (2R)-isopropyl 2-(((((2R,3S,4R,5S)-5-(4-aminopyrrolo[2,1-f][1,2,4]triazin-7-yl)-2-cyano-3,4-dihydroxytetrahydrofuran-2-yl)methoxy)(phenoxy)phosphoryl)amino)propanoate]",> 50,> 5000,> 50,22600,
"CCC(CC)COC(=O)[C@H](C)OP(=O)(OC[C@@]1(C#N)O[C@@H](c2ccc3c(N)ncnn23)[C@H](O)[C@@H]1O)Oc1ccccc1 (stereo partly drawn) [Example 244, 2-ethylbutyl (2S)-2-(((((2R,3S,4R,5S)-5-(4-aminopyrrolo [2,1-f][1,2,4]triazin-7-yl)-2-cyano-3,4-dihydroxytetrahydrofuran-2-yl)methoxy)(phenoxy)phosphoryl)oxy)propanoate]",,,,,"EC50 ([1]; 96 h, read-out: HRV16 HELA EC50): 33.6 µM; EC50 ([2]; human respiratory syncytial virus, NHBE, 96 h): > 5000 nM; EC50 [3, 10]: 36.7 µM; EC50 ([4]; human respiratory syncytial virus, HEp-2, 96 h): 4950 nM"
"CCC(CC)COC(=O)[C@H](C)NP(=O)(N[C@@H](C)C(=O)OCC(C)(C)C)OC[C@@]1(C#N)O[C@@H](c2ccc3c(N)ncnn23)[C@H](O)[C@@H]1O (stereo partly drawn) [Example 200, 2-ethylbutyl ((((2R,3S,4R,5S)-5-(4-aminopyrrolo[2,1-f][1,2,4]triazin-7-yl)-2-cyano-3,4-dihydroxytetrahydrofuran-2-yl)methoxy)(((S)-1-(neopentyloxy)-1-oxopropan-2-yl)amino)phosphoryl)-L-alaninate]",,,,,"EC50 [1, 9]: 5.68 µM; EC50 ([2]; human respiratory syncytial virus, 96 h, NHBE cells, RSV A2, 4 days): 125 nM; EC50 [3, 10]: > 50 µM; EC50 ([4]; human respiratory syncytial virus, 96 h, HEp-2 cells, RSV A2, 4 days): 1400 nM"
"COC(=O)[C@H](C)NP(=O)(OC[C@@]1(C#N)O[C@@H](c2ccc3c(N)ncnn23)[C@H](O)[C@@H]1O)Oc1ccccc1 (stereo partly drawn) [Example 39, methyl ((((2R,3S,4R,5S)-5-(4-aminopyrrolo[2,1-f][1,2,4]triazin-7-yl)-2-cyano-3,4-dihydroxytetrahydrofuran-2-yl)methoxy)(phenoxy)phosphoryl)-L-alaninate]",1.08,569,> 50,166,
"CCCCOC(=O)CC[C@H](NP(=O)(OC[C@@]1(C#N)O[C@@H](c2ccc3c(N)ncnn23)[C@H](O)[C@@H]1O)Oc1ccccc1)C(=O)OC1CCCCC1 (stereo partly drawn) [Example 229, 5-butyl 1-cyclohexyl ((((2R,3S,4R,5S)-5-(4-aminopyrrolo [2,1-f][1,2,4]triazin-7-yl)-2-cyano-3,4-dihydroxytetrahydrofuran-2-yl)methoxy)(phenoxy)phosphoryl)-L-glutamate]",> 40.2,> 5000,31.4,> 13300,
